“Also recorded” adds a separate entry of the source.
Columns and labels:
[1] = system: cell morphology and viability; assay: Cytotoxic effects on cell morphology and viability; format: cell-based; settings: at the tested doses
[2] = system: NF-κB-dependent promoter activity; assay: IL-1- and LPS-induced NF-κB-dependent promoter activity; format: cell-based
[3] = system: pro-inflammatory mediators at mRNA levels; assay: Q-PCR of TNFα-induced pro-inflammatory mediators in RAW264.7; format: cell-based, mouse; settings: TNFα 10 ng/ml 6 hours, vinpocetine 50 μM
Procedure: (§1) Expression of TNFα, IL-1β, IL-8, MCP-1 and VCAM-1, ICAM-1, MIP-1 at mRNA levels were measured by Real-time quantitative RT-PCR (Q-PCR).
(§2) Total RNA was isolated with TRIzol reagent (Invitrogen) by following the manufacturer's instructions. For the reverse transcription reaction, TaqMan reverse transcription reagents (Applied Biosystems) were used. In brief, the reverse transcription reaction was performed for 60 min at 37° C., followed by 60 min at 42° C. by using oligo (dT) and random hexamers. PCR amplifications were performed by using SYBR Green Universal Master Mix. In brief, reactions were performed in duplicate containing 2× Universal Master Mix, 1 μl of template cDNA and 100 nM primers in a final volume of 12.5 μl, and they were analyzed in a 96-well optical reaction plate (Applied Biosystems). The relative quantities of mRNAs were obtained by using the comparative Ct method and were normalized with predeveloped Taqman assay reagent rat or mouse glyceraldehydes-3-phosphate dehydrogenase or human cyclophilin as an endogenous control (Applied Biosystems).

[4] = system: pro-inflammatory mediators at mRNA levels; assay: Q-PCR of TNFα-induced pro-inflammatory mediators in rat aortic VSMCs; format: cell-based; settings: TNFα 10 ng/ml 6 hours, vinpocetine 50 μM
Procedure: as §1, §2

IKK [5] = assay: In vitro IKK kinase assay, compound applied directly to the IKK immune complex; format: biochemical, rat; settings: IKK immune complex in the test tube
[6] = patients, literature; cited from earlier work
IKK [7] = assay: In vitro IKK kinase assay in the presence of cell lysates from vinpocetine-treated VSMCs; format: biochemical, rat
Procedure: Intensities of the GST-IκBα bands in the autoradiogram were measured by densitometric scanning.

[8] = system: IκBα phosphorylation and degradation; assay: Western blot of TNFα-induced IκBα phosphorylation and degradation in VSMCs; format: cell-based; settings: rat aortic VSMCs; TNFα 10 ng/ml; vinpocetine 50 μM, nifedipine 30 μM, IC86340 15 μM, EGTA 2 mM, BAPTA/AM 30 μM
Procedure: (§3) Rat aortic VSMCs were treated with TNFα (10 ng/ml) for different time periods (0-30 minutes) as indicated in the presence or absence of vinpocetine ([…]). Western Blotting analysis was carried out to evaluate the levels of phosphorylated IκBα, total IκBα- and β-actin. […] IKK kinase activity was analyzed by an immune complex kinase assay. […] VSMCs were treated with TNFα for 10 min in the presence of various doses of vinpocetine as indicated. FIG. 8D illustrates the relative IKK activity as indicated. Intensities of the GST-IκBα bands in the autoradiogram were measured by densitometric scanning. Results were normalized to the control ([vinpocetine]=0) that is arbitrarily set to 100%. *p<0.05, **p<0.01 vs. vitipocetine at zero. FIGS. 8E-H illustrate the effects of vinpocetine on NF-κB activation induced by expressing constitutive active form of either MEKK1 (CA-MEKK1) (FIG. 8E), IKKα (CA-IKKα) (FIG. 8F), IKKβ (CA-IKKβ) (FIG. 8G), or WT p65 (FIG. 8H) in VSMCs.
(§4) Rat aortic VSMCs were treated with TNFα (10 ng/ml) for 10 minutes in the presence of either 50 μM vinpocetine, 30 μM nifedipine (Ca^2+ channel blocker), 15 μM IC86340 (PDE1 inhibitor), 2 mM EGTA (extracellular Ca^2+ chelator), or 30 μM BAPTA/AM (intracellular Ca^2+ chelator). […] Western Blotting analysis was carried out to evaluate the levels of phosphorylated IκBα total IκBα and β-actin. Data represent at least three independent experiments.
Cells lysates were prepared in the buffer containing 20 mM Tris-HCl (pH8.0), 0.5 M NaCl, 0.25% Triton X-100, 1 mM EDTA, 1 mM EGTA, 10 mM-glycerophosphate, 10 mM NaF, 100 μM Na3VO4, 1 mM benzamidine, 2 μM PMSF, 1 mM DTT and protease inhibitor cocktail (Sigma, MO. USA), by scraping, sonication, and centrifugation at 12,000 g for 15 min. Supernatant were collected and then subjected to SDS-PAGE and Western blot analysis with indicated antibodies.

NF-κB activation = assay: NF-κB luciferase activity induced by CA-MEKK1, CA-IKKα, CA-IKKβ or WT p65 in VSMCs; format: cell-based, rat
[9] = system: NF-κB-dependent promoter activity; assay: NF-κB-Luc dual luciferase reporter assay in rat aortic VSMCs
[10] = system: U937 monocytes adhering to HUVECs; assay: Monocyte adhesion assay; format: cell-based, human; settings: 50 μM vinpocetine 30 min, then TNFα 10 ng/ml 6 hours
[11] = system: monocyte chemotaxis to VSMCs; assay: Monocyte chemotaxis assay (transwell migration, Boyden chamber); format: cell-based, rat; settings: various doses; TNFα 10 ng/ml 9 hours; VSMC-conditional medium
[12] = system: pro-inflammatory mediators at mRNA levels; assay: Q-PCR of TNFα-induced pro-inflammatory mediators in HUVECs; format: cell-based, human; settings: TNFα 10 ng/ml 6 hours, vinpocetine 50 μM
Procedure: as §1, §2

IKK [13] = assay: IKK immune complex kinase assay from TNFα-treated VSMCs; format: cell-based, rat; settings: for TNFα-induced IKK kinase activity: rat aortic VSMCs treated with TNFα 10 min in the presence of compound; for effect on the ability of vinpocetine on IKK kinase activity, IκB phosphorylation, IκB degradation or NF-κB-dependent transcriptional activity: co-treatment with vinpocetine
Procedure: as §3, §4
Cell lysates were prepared as described above. 1 mg of cell lysates were incubated with 1-2 μg of anti-IKKα (Santa Cruz, Calif., USA) for 1-2 h, followed by 50μl of 50% of slurry protein A/G plus-Agarose for another 1 h or overnight at 4° C. Immunoprecipitants were then washed two times with lysis buffer and once with kinase buffer without ATP. In vitro kinase assay were performed in kinase buffer containing 20 mM HEPES (pH 7.7), 2 mM MgCl2, 2 mM MnCl2, 10 μM ATP, 5 μCi of [γ-^32P]ATP (Amersham Biosciences, NJ, USA), 10 mM glycerophosphate, 10 mM NaF, 100 μM Na3VO4, 1 mM benzamidine, 2 μM PMSF, 1 mM DTT and protease inhibitor cocktail (Sigma, MO, USA) at 30° C. for 30-60 min, in the presence of substrate GST-IκBα (AA 1-54) (kindly provided by Dae-Myung Jue, Catholic University of Korea). Proteins were separated by 12% SDS-PAGE and subjected to autoradiography. Phosphorylation of GST-IκBα was quantified in NIH Image 1.60.
Because IKK is known as the major upstream kinase for IκBα phosphorylation and degradation, whether vinpocetine inhibits IκB phosphorylation and degradation via inhibition of IKK was determined. TNFα-induced activation of IKK was confirmed by performing IKK kinase assay in TNFα-stimulated VSMCs. The crude cell lysates from treated VSMCs were first immunoprecipitated with an anti-IKKα antibody and IKK kinase activity was then measured in vitro with IKK immune complexes incubated with the substrate GST-IκBα in the presence of [γ-^32P]-ATP.

[14] = system: pro-inflammatory mediators at mRNA levels; assay: Q-PCR of TNFα-induced pro-inflammatory mediators in A549 cells; format: cell-based, human; settings: TNFα 10 ng/ml 6 hours, vinpocetine 50 μM
Procedure: as §1, §2

[15] = system: TNFα-induced lung inflammation; assay: Mouse model of lung inflammation induced by TNFα; format: in vivo; settings: mice; TNFα i.t. (500 ng per mouse)
Procedure: Lung tissues were collected and then stored at -80° C. for mRNA expression analysis. For polymorphonuclear neutrophil (PMN) recruitment analysis, broncho-alveolar lavage (BAL) was performed by cannulating the trachea with sterilized PBS, and cells from BAL was stained with Hemacolor (EM Science) after cytocentrifugation (Shandon Cytospin4, Thermo Electronic Co.). Three mice were used for each inoculation group. All animal experiments were approved by the institutional Animal Care and Use Committee at University of Rochester.

[16] = system: LPS-induced lung inflammation; assay: Mouse model of lung inflammation induced by LPS; format: in vivo; settings: mice

SMILES: CCOC(=O)C1=C[C@]2(CC)CCCN3CCc4c(n1c1ccccc41)[C@@H]32 [vinpocetine, (+)-vinpocetine]
- cytotoxic effects on cell morphology and viability [1]: no significant cytotoxic effects
- IL-1- and LPS-induced NF-κB-dependent promoter activity [2]: inhibited
- TNFα-induced expression of TNFα, IL-1β and MIP-2 mRNA [3]: inhibit
- TNFα-induced expression of TNFα, IL-1β, IL-8, MCP-1 and VCAM-1 mRNA [4]: potently inhibited
- IKK activity, compound directly applied to IKK (IKK [5]): No significant inhibitory effect; also recorded: did not inhibit IKK activity
- side effects, toxicity or contraindications at the therapeutic doses [6]: no reports of significant side effects, toxicity or contraindications
- inhibition of IKK activity by cell lysates from vinpocetine-treated cells (IKK [7]; cell lysates): 50%
- vinpocetine treatment concentration of lysate required for a significant effect on IKK inhibition ex vivo (IKK [7]; cell lysates): 100 µM
- IKK activity in the presence of cell lysates from vinpocetine-treated cells (IKK [7]; lysates of VSMCs preincubated with vinpocetine): inhibited IKK activity
- TNFα-induced IκBα phosphorylation and degradation [8]: markedly inhibited
- NF-κB activation induced by CA-IKKα (NF-κB activation; constitutively active IKKα): inhibited
- NF-κB activation induced by CA-IKKβ (NF-κB activation; constitutively active IKKβ): inhibited
- CA-MEKK1-induced NF-κB activation (NF-κB activation; constitutively active MEKK1): significantly inhibited
- TNFα-induced NF-κB-dependent promoter activity ([9]; rat aortic VSMCs, TNFα 10 ng/ml 6 hours, various doses): potently inhibited
- monocyte adhesion to HUVECs [10]: markedly inhibited
- monocyte chemotaxis to VSMCs induced by TNFα [11]: inhibited monocyte chemotaxis to VSMCs induced by TNFα in a dose-dependent manner
- TNFα-induced expression of TNFα, IL-1β, IL-8, MCP-1, VCAM-1 and ICAM-1 mRNA [12]: inhibit
- TNFα-induced IKK kinase activity (IKK [13]): inhibited TNFα-induced IKK activity in a dose-dependent manner
- TNFα-induced expression of TNFα, IL-1β and IL-8 mRNA [14]: inhibit
- induction of inflammatory mediators and PMN infiltration in the lungs [15]: also inhibited
- induction of TNFα, IL-1β and MIP-2 mRNA in the lungs ([16]; LPS 2 μg/mouse i.t., vinpocetine 2.5, 5, 10 mg/kg i.p.): dose-dependently inhibited; also recorded: significantly inhibited
- PMN infiltration in BAL fluids ([16]; LPS i.t., vinpocetine 10 mg/kg i.p.): significantly inhibited

SMILES: NC1=N[C@H](O)[C@H]2[C@H]3O[C@]4(O)O[C@@H]([C@@H](O)[C@@]2(N1)[C@@H]4O)[C@]3(O)CO [tetrodotoxin]
- effect on the effect of vinpocetine on NF-κB-dependent transcription [9]: did not alter

SMILES: O=C(O)CN(CCOCCOCCN(CC(=O)O)CC(=O)O)CC(=O)O [EGTA]
- TNFα-induced IκBα phosphorylation and degradation [8]: none of them exhibited any significant inhibitory effects
- effect on the ability of vinpocetine on IKK kinase activity, IκB phosphorylation, IκB degradation or NF-κB-dependent transcriptional activity (IKK [13]): did not significantly affect
- TNFα-induced IKK kinase activity (IKK [13]): none of them exhibited any significant inhibitory effects

SMILES: CC(=O)OCOC(=O)CN(CC(=O)OCOC(C)=O)c1ccccc1OCCOc1ccccc1N(CC(=O)OCOC(C)=O)CC(=O)OCOC(C)=O [BAPTA/AM]
- TNFα-induced IκBα phosphorylation and degradation [8]: none of them exhibited any significant inhibitory effects
- effect on the ability of vinpocetine on IKK kinase activity, IκB phosphorylation, IκB degradation or NF-κB-dependent transcriptional activity (IKK [13]): did not significantly affect
- TNFα-induced IKK kinase activity (IKK [13]): none of them exhibited any significant inhibitory effects

— patent US9682070B2, “Method and compositions for treatment or prevention of inflammatory conditions” (University of Rochester, priority 2007, dated 2017)
